Test results taken from PubChem BioAssay AID624361 (Broad Institute, 2012).
Results filed as inconclusive are left out. Activity calls are given as the source filed them. The rule behind the calls is not given here.

How the values were obtained:
[1] = inhibitors of LMP1-driven NF-kB reporter, dose response, cell-based, EBV LMP1, luciferase, dry powder, set 2 (AID 624361); details: LMP1-induced NF-kappaB luciferase reporter cells, luminescence
[2] = test system: LMP1-induced NF-kappaB luciferase reporter cells, luminescence; assay: as above

Compound	activity change, negative = inhibition ([1]; at 35 µM (top of the series))	further results
C[C@@H]1CN([C@H](C)CO)C(=O)c2c(c3ccccc3n2C)-c2ccccc2CO[C@@H]1CN(C)C(=O)Nc1ccc(F)cc1	-8.91% (inactive)	
C[C@H](CO)N1C[C@H](C)[C@@H](CN(C)Cc2ccc(C(F)(F)F)cc2)Oc2ccc(NC(=O)Cc3ccccc3)cc2CC1=O	-11.3% (inactive)	
C[C@H](CO)N1C[C@H](C)[C@H](CN(C)Cc2ccc(C(F)(F)F)cc2)Oc2ccc(NC(=O)Cc3ccccc3)cc2CC1=O	4.01% (inactive)	
C/C=C/c1cccc(-c2nc(C(=O)Nc3nccs3)cc3c2[C@@H](CCO)N(C(=O)NC(C)C)C3)c1	-17% (inactive)	
CO[C@@H]1CN(C)C(=O)c2ccc(NC(C)=O)cc2OC[C@@H](C)N(Cc2ccccc2F)C[C@H]1C	0.476% (inactive)	
C[C@H](CO)N1C[C@H](C)[C@H](CN(C)Cc2ccc(Oc3ccccc3)cc2)Oc2ccc(NC(=O)CCCN(C)C)cc2C1=O	16.2% (inactive)	
C[C@@H](NC(=O)C[C@H]1C=C[C@H](NC(=O)Cc2ccccn2)[C@@H](CO)O1)c1ccccc1	9.43% (inactive)	
O=C(Cc1ccccn1)NCC[C@H]1CC[C@@H](NC(=O)Nc2ccc(Cl)cc2)[C@@H](CO)O1	-0.381% (inactive)	
O=C(Cc1ccccn1)NCC[C@H]1CC[C@H](NC(=O)Nc2ccc(Cl)cc2)[C@@H](CO)O1	-4.61% (inactive)	
C[C@H](NC(=O)C[C@H]1C=C[C@@H](NC(=O)Cc2ccccn2)[C@H](CO)O1)c1ccccc1	-1.8% (inactive)	
C[C@H]1CN([C@@H](C)CO)C(=O)Cc2cc(NC(=O)Cc3ccccc3)ccc2O[C@H]1CN(C)Cc1ccc(C(F)(F)F)cc1	11.5% (inactive)	
C[C@@H](NC(=O)C[C@@H]1C=C[C@@H](NC(=O)Cc2ccccn2)[C@@H](CO)O1)c1ccccc1	9.33% (inactive)	
C[C@H]1CN([C@@H](C)CO)C(=O)Cc2cc(NC(=O)Cc3ccccc3)ccc2O[C@@H]1CN(C)Cc1ccc(C(F)(F)F)cc1	-12.8% (inactive)	
C[C@@H]1CN([C@@H](C)CO)C(=O)Cc2cc(NC(=O)Cc3ccccc3)ccc2O[C@@H]1CN(C)Cc1ccc(C(F)(F)F)cc1	-12.6% (inactive)	
CS(=O)(=O)Nc1ccc2c(c1)[C@@H]1C[C@H](CC(=O)NCC3CC3)O[C@H](CO)[C@@H]1O2	-4.41% (inactive)	
C[C@H]1CN([C@@H](C)CO)C(=O)c2c(c3ccccc3n2C)-c2ccccc2CO[C@@H]1CN(C)C(=O)Nc1ccc(F)cc1	-12.4% (inactive)	
CC(C)(C)[S@@](=O)N1Cc2cc(C(=O)NCCc3ccncc3)nc(-c3cccc(-c4cccnc4)c3)c2[C@H]1CCO	-15% (inactive)	
Cc1noc(C)c1S(=O)(=O)Nc1ccc2c(c1)C(=O)N([C@H](C)CO)C[C@@H](C)[C@@H](CN(C)Cc1ccc(C(F)(F)F)cc1)OCCCC[C@@H](C)O2	1.95% (inactive)	
C[C@@H](NC(=O)C[C@H]1C[C@@H]2c3cc(NC(=O)c4cccnc4)ccc3O[C@@H]2[C@@H](CO)O1)c1ccccc1	-0.38% (inactive)	
C[C@@H](NC(=O)C[C@H]1C=C[C@H](NC(=O)Cc2ccccn2)[C@H](CO)O1)c1ccccc1	9.56% (inactive)	

Compound	activity change, negative = inhibition ([1]; at 35 µM (top of the series))	further results
CCC(=O)N1Cc2cc(C(=O)Nc3nccs3)nc(-c3cccc(-c4ccccc4OC)c3)c2[C@H]1CCO	-7.28% (inactive)	
C[C@@H]1CN([C@@H](C)CO)C(=O)c2c(c3ccccc3n2C)-c2ccccc2CO[C@@H]1CN(C)C(=O)Nc1ccc(F)cc1	-5.35% (inactive)	
C[C@@H](NC(=O)C[C@@H]1C=C[C@H](NC(=O)Cc2ccccn2)[C@H](CO)O1)c1ccccc1	-1.52% (inactive)	
C[C@H](NC(=O)C[C@@H]1C=C[C@@H](NC(=O)Cc2ccccn2)[C@H](CO)O1)c1ccccc1	-0.475% (inactive)	
COc1ccccc1CNC(=O)C[C@H]1C[C@@H]2c3cc(NC(=O)CN(C)C)ccc3O[C@@H]2[C@@H](CO)O1	0.74% (inactive)	
O=C(Cc1ccccn1)NCC[C@@H]1CC[C@H](NC(=O)Nc2ccc(Cl)cc2)[C@@H](CO)O1	-3.42% (inactive)	
C[C@@H](NC(=O)C[C@H]1C=C[C@@H](NC(=O)Cc2ccccn2)[C@H](CO)O1)c1ccccc1	-5.56% (inactive)	
C[C@H](NC(=O)C[C@@H]1C=C[C@H](NC(=O)Cc2ccccn2)[C@@H](CO)O1)c1ccccc1	-0.999% (inactive)	
O=C(Cc1ccccn1)NCC[C@H]1CC[C@@H](NC(=O)Nc2ccc(Cl)cc2)[C@H](CO)O1	-2.38% (inactive)	
C[C@@H]1CN([C@H](C)CO)C(=O)Cc2cc(NC(=O)Cc3ccccc3)ccc2O[C@H]1CN(C)Cc1ccc(C(F)(F)F)cc1	-9.16% (inactive)	
O=C(C[C@@H]1C[C@@H]2c3cc(NC(=O)c4cccnc4)ccc3O[C@@H]2[C@H](CO)O1)NCC(F)(F)F	-2.29% (inactive)	
C[C@@H]1CN([C@@H](C)CO)C(=O)c2c(c3ccccc3n2C)-c2ccccc2CO[C@H]1CN(C)C(=O)Nc1ccc(F)cc1	-8.29% (inactive)	
C[C@H](NC(=O)C[C@H]1C=C[C@@H](NC(=O)Cc2ccccn2)[C@@H](CO)O1)c1ccccc1	11% (inactive)	
O=C(C[C@H]1C[C@@H]2c3cc(NS(=O)(=O)c4ccc(F)cc4)ccc3O[C@@H]2[C@H](CO)O1)NC1CCCCC1	-1.53% (inactive)	
CS(=O)(=O)Nc1ccc2c(c1)[C@H]1C[C@@H](CC(=O)NCC3CC3)O[C@@H](CO)[C@H]1O2	8.63% (inactive)	
C[C@H](NC(=O)C[C@H]1C=C[C@H](NC(=O)Cc2ccccn2)[C@H](CO)O1)c1ccccc1	5.47% (inactive)	
O=C(Cc1ccccn1)NCC[C@@H]1CC[C@@H](NC(=O)Nc2ccc(Cl)cc2)[C@@H](CO)O1	1.94% (inactive)	
O=C(Cc1ccccn1)NCC[C@@H]1CC[C@H](NC(=O)Nc2ccc(Cl)cc2)[C@H](CO)O1	-5.88% (inactive)	
O=C(Cc1ccccn1)NCC[C@H]1CC[C@H](NC(=O)Nc2ccc(Cl)cc2)[C@H](CO)O1	-1.01% (inactive)	
C[C@H](NC(=O)C[C@H]1C[C@@H]2c3cc(NC(=O)c4cccnc4)ccc3O[C@@H]2[C@@H](CO)O1)c1ccccc1	0.067% (inactive)	

Compound	activity change, negative = inhibition ([1]; at 35 µM (top of the series))	further results
C[C@@H]1CN([C@H](C)CO)C(=O)c2c(c3ccccc3n2C)-c2ccccc2CO[C@H]1CN(C)C(=O)Nc1ccc(F)cc1	-3.16% (inactive)	
C[C@@H](NC(=O)C[C@@H]1C=C[C@H](NC(=O)Cc2ccccn2)[C@@H](CO)O1)c1ccccc1	8.29% (inactive)	
O=C(C[C@@H]1C[C@H]2c3cc(NS(=O)(=O)c4ccc(F)cc4)ccc3O[C@H]2[C@@H](CO)O1)NC1CCCCC1	-2.44% (inactive)	
C[C@@H](NC(=O)C[C@@H]1C=C[C@@H](NC(=O)Cc2ccccn2)[C@H](CO)O1)c1ccccc1	5.05% (inactive)	
COc1ccccc1C(=O)Nc1ccc2c(c1)C(=O)N(C)[C@@H]1CC[C@H](CC(=O)NCCc3ccncc3)O[C@H]1CO2	-6.13% (inactive)	
COC(=O)C[C@@H]1C[C@@H]2c3cc(NC(=O)CN(C)C)ccc3O[C@@H]2[C@@H](CO)O1	-0.64% (inactive)	
CO[C@H]1CN(C)C(=O)c2ccc(NC(=O)C3CC3)cc2OC[C@H](C)N(C(=O)c2ccccn2)C[C@H]1C	-14% (inactive)	
COC(=O)C[C@H]1C[C@H]2c3cc(NC(=O)CN(C)C)ccc3O[C@H]2[C@H](CO)O1	-4.37% (inactive)	
Cc1noc(C)c1S(=O)(=O)Nc1ccc2c(c1)C(=O)N([C@H](C)CO)C[C@H](C)[C@@H](CN(C)Cc1ccc(C(F)(F)F)cc1)OCCCC[C@@H](C)O2	-11.1% (inactive)	
CC(C)(C)[S@](=O)N1Cc2cc(C(=O)NCC(F)(F)F)nc(-c3cccc(-c4cccc(F)c4)c3)c2[C@@H]1CCO		AC35 [2]: 8.29 µM
C[C@H](NC(=O)C[C@H]1C=C[C@H](NC(=O)Cc2ccccn2)[C@@H](CO)O1)c1ccccc1	3.66% (inactive)	
C[C@@H]1CN([C@@H](C)CO)S(=O)(=O)c2ccc(C#Cc3ccncc3)cc2O[C@H]1CN(C)C(=O)Nc1ccc2c(c1)OCO2		AC35 [2]: 24 µM
O=C(C[C@H]1C[C@@H]2c3cc(NS(=O)(=O)c4ccc(F)cc4)ccc3O[C@@H]2[C@@H](CO)O1)NCc1ccc(Oc2ccccc2)cc1		AC35 [2]: 12.3 µM
COc1ccccc1C#Cc1ccc2c(c1)O[C@H](CN(C)Cc1cccnc1)[C@H](C)CN([C@@H](C)CO)S2(=O)=O		AC35 [2]: 18.3 µM
C[C@@H]1CN([C@H](C)CO)S(=O)(=O)c2ccc(/C=C/c3ccccc3)cc2O[C@H]1CN(C)C(=O)NC1CCCCC1		AC35 [2]: 19.3 µM
O=C(Cc1ccccn1)NCC[C@@H]1CC[C@@H](NC(=O)Nc2ccc(Cl)cc2)[C@H](CO)O1	10.1% (inactive)	
O=C(Nc1ccc(C(F)(F)F)cc1)Nc1ccc2c(c1)[C@H]1C[C@@H](CC(=O)N3CCc4ccccc4C3)O[C@@H](CO)[C@H]1O2		AC35 [2]: 21.7 µM
C[C@H](NC(=O)C[C@@H]1C=C[C@H](NC(=O)Cc2ccccn2)[C@H](CO)O1)c1ccccc1		activity change, negative = inhibition ([1]; at 30 µM (top of the series)): -0.706% (inactive)
C[C@@H](NC(=O)C[C@H]1C=C[C@@H](NC(=O)Cc2ccccn2)[C@@H](CO)O1)c1ccccc1	0.795% (inactive)	
